Here are results for ten molecules from ChEMBL document CHEMBL1201862, “PubChem BioAssay data set” (2004).

What all share (assay): inhibition of tumour cell growth, NCI panel, 48 h
The subject of experiment [1] is HOP-92.
Experiment [2] concerns COLO 205.
In experiment [3] the test system is HCC 2998.
Experiment [4] relates to CAKI-1.
Experiment [5] deals with NCI-H23.
Experiment [6] relates to MDA-MB-435.
Experiment [7] deals with SNB-75.
The subject of experiment [8] is RPMI-8226.
For experiment [9], the system named is MCF7.
In experiment [10] the test system is SW-620.
For experiment [11], the system named is OVCAR-5.
Experiment [12] deals with K562.
The subject of experiment [13] is SR.
Experiment [14] concerns OVCAR-8.
Experiment [15] concerns UO-31.
Experiment [16] deals with TK-10.
For experiment [17], the system named is DU-145.
The subject of experiment [18] is A549.
In experiment [19] the test system is SF-295.

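A five-concentration, 48-hour dose response in 96-well plates underlies each endpoint, interpolated linearly between surrounding concentrations. The concentration for 50% growth inhibition is given as GI50.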 Calls of active or inactive are those of the source. Cut-off read from the data, not from the text of the source: active = GI50 up to about 1.1 µM and inactive = higher. Some results are limits rather than exact numbers.

In the case of `O=[N+]([O-])c1ccc2c(c1)=[N+]([O-])C1(CCCCC1)[N+]=2[O-]`, the GI50 in experiment [1] is 15.3 µM (inactive); in [2], 12.1 µM (inactive); in [3], 18.3 µM (inactive); in experiment [4], 20.4 µM (inactive); in experiment [5], 22.9 µM (inactive); in [6], 13.7 µM (inactive). Further, the GI50 in experiment [7] is 17.3 µM (inactive); in [8] it was 10.2 µM (inactive); in [9], 16.1 µM (inactive); in experiment [10], 15.9 µM (inactive); in [11], 20.5 µM (inactive); in experiment [12], 15.8 µM (inactive). In addition, the GI50 was 6.43 µM (inactive) in [13]; 15.8 µM (inactive) in [14]; 19.6 µM (inactive) in experiment [15]; 13.3 µM (inactive) in experiment [16]; 18.9 µM (inactive) in experiment [17]; 19.7 µM (inactive) in [18]. In addition, the GI50 in experiment [19] is 19.8 µM (inactive).

As for `c1ccc(-c2c(-c3cccs3)[nH]c(-c3cccs3)c2-c2ccccn2)nc1`, the GI50 was 25.8 µM (inactive) in [1]; 15 µM (inactive) in experiment [2]; 20.2 µM (inactive) in [3]; 37.4 µM (inactive) in experiment [4]; 26.2 µM (inactive) in [5]; 15.7 µM (inactive) in experiment [6]. The GI50 in experiment [7] was 17.6 µM (inactive); in [8] it was 20 µM (inactive); in [9] it was > 10 µM (inactive); in [10], 13 µM (inactive); in experiment [11], 30.5 µM (inactive); in experiment [12], 11.7 µM (inactive). For the same molecule, the GI50 in [13] was 26.2 µM (inactive); in experiment [14], 26.4 µM (inactive); in experiment [15] it was 19.2 µM (inactive); in experiment [16] it was 40.2 µM (inactive); in [17] it was 0.27 µM (active); in [18], 18.1 µM (inactive). Further, the GI50 in experiment [19] is 20.2 µM (inactive).

In the case of `[N-]=[N+]=NI1OC(C(F)(F)F)(C(F)(F)F)c2ccccc21`, the GI50 is 13.4 µM (inactive) in [1]; 13.8 µM (inactive) in experiment [2]; 17.9 µM (inactive) in experiment [3]; 8.55 µM (inactive) in [4]; 17.8 µM (inactive) in [5]; 17.5 µM (inactive) in experiment [6]. Besides, the GI50 is 13.5 µM (inactive) in experiment [7]; 12.1 µM (inactive) in experiment [8]; 12.9 µM (inactive) in [9]; 19.1 µM (inactive) in [10]; 15.1 µM (inactive) in experiment [11]; 11.5 µM (inactive) in experiment [12]. For the same molecule, the GI50 was 15.6 µM (inactive) in experiment [13]; 16.3 µM (inactive) in [14]; 11 µM (inactive) in experiment [15]; 16.5 µM (inactive) in experiment [16]; 18 µM (inactive) in [17]; 14.9 µM (inactive) in experiment [18]. For the same molecule, the GI50 in [19] is 16 µM (inactive).

On to `C=C1CC[C@@H]2[C@](C)(COC(=O)CCC(=O)O)CCC[C@@]2(C)[C@@H]1CCC1=CC(=O)OC1`, for which the GI50 in [1], in [2], in [3], in [4], in experiment [5] and in experiment [6] was > 100 µM (inactive) in each case. Moreover, the GI50 in [7], in experiment [8], in experiment [9], in experiment [10], in [11] and in experiment [12] was > 100 µM (inactive) throughout. In addition, the GI50 was > 10 µM (inactive) in experiment [13]; > 100 µM (inactive) in experiment [14]; > 100 µM (inactive) in experiment [15]; > 100 µM (inactive) in [16]; 5.97 µM (inactive) in experiment [17]; > 100 µM (inactive) in experiment [18]. For the same molecule, in experiment [19], the GI50 is > 100 µM (inactive).

On to `O=C(NNC(=S)Nc1ccc(Cl)cc1)c1cc(-c2ccccc2)nc2ccccc12`, for which the GI50 is 3.59 µM (inactive) in [1]; 4.99 µM (inactive) in experiment [2]; 3.53 µM (inactive) in experiment [3]; 4.71 µM (inactive) in [4]; 4.94 µM (inactive) in experiment [5]; 2.82 µM (inactive) in experiment [6]. Moreover, the GI50 was 4.9 µM (inactive) in experiment [7]; 4.08 µM (inactive) in experiment [8]; 4.01 µM (inactive) in experiment [9]; 4.91 µM (inactive) in [10]; 10.3 µM (inactive) in experiment [11]; 4.28 µM (inactive) in experiment [12]. Also, the GI50 in [13] is 2.21 µM (inactive); in experiment [14], 8.11 µM (inactive); in [15] it was 5.28 µM (inactive); in experiment [16], 7.19 µM (inactive); in experiment [17], 4.23 µM (inactive); in experiment [18], 7.11 µM (inactive). The GI50 in experiment [19] is 2.52 µM (inactive).

With `O=[N+]([O-])c1ccc2c(c1)/C(=N/N=C1c3ccccc3Cc3ccccc31)c1cc([N+](=O)[O-])cc([N+](=O)[O-])c1-2`, the GI50 is 2.17 µM (inactive) in experiment [1]; 3.21 µM (inactive) in experiment [2]; 5.85 µM (inactive) in experiment [3]; 3.6 µM (inactive) in experiment [4]; 1.96 µM (inactive) in experiment [5]; 1.79 µM (inactive) in [6]. Further, the GI50 in experiment [7] was 2.81 µM (inactive); in [8] it was 4.39 µM (inactive); in [9], 1.65 µM (inactive); in experiment [10], 3.28 µM (inactive); in experiment [11], 2.75 µM (inactive); in [12], 3.7 µM (inactive). Further, the GI50 in experiment [13] is 4.61 µM (inactive); in [14] it was 1.67 µM (inactive); in experiment [15], 2.05 µM (inactive); in experiment [16] it was 4.29 µM (inactive); in experiment [17], 5.82 µM (inactive); in experiment [18], 9.4 µM (inactive). The GI50 in [19] was 1.93 µM (inactive).

In the case of `CCN(C)c1nc(N(C)CC)c2nc(N(C)CC)nc(N(C)CC)c2n1`, the GI50 in experiment [1], in experiment [2], in experiment [3], in [4], in experiment [5] and in [6] was > 100 µM (inactive) in each case. Besides, the GI50 in experiment [7], in experiment [8], in [9], in experiment [10], in [11] and in experiment [12] was > 100 µM (inactive) throughout. The GI50 is 26.5 µM (inactive) in experiment [13]; > 100 µM (inactive) in [14]; > 100 µM (inactive) in experiment [15]; > 100 µM (inactive) in experiment [16]; > 100 µM (inactive) in experiment [17]; > 100 µM (inactive) in [18]. For the same molecule, the GI50 in experiment [19] was > 100 µM (inactive).

Regarding `C=C1CC(C)(COc2ccc3c(C)c(Cl)c(=O)oc3c2)OC1=O` (stereo not given), the GI50 was 1.06 µM (active) in experiment [1]; 0.729 µM (active) in [2]; 1.81 µM (inactive) in [3]; 0.59 µM (active) in experiment [4]; 1.21 µM (inactive) in experiment [5]; 2.97 µM (inactive) in [6]. Also, the GI50 in experiment [7] was 2.02 µM (inactive); in experiment [8], 0.391 µM (active); in experiment [9], 1.24 µM (inactive); in experiment [10], 0.461 µM (active); in experiment [11] it was 4.23 µM (inactive); in experiment [12], 0.518 µM (active). Moreover, the GI50 in [13] is 0.865 µM (active); in [14] it was 2.75 µM (inactive); in experiment [15], 3.34 µM (inactive); in [16] it was 0.942 µM (active); in experiment [17], 2.4 µM (inactive); in experiment [18], 11.1 µM (inactive). Further, in experiment [19], the GI50 is 6.12 µM (inactive).

Consider `O=C1c2ccccc2-c2nnc3c(c21)Cc1ccccc1C3`, for which the GI50 in experiment [1], in experiment [2], in experiment [3], in [4], in experiment [5] and in experiment [6] was > 10 µM (inactive) each time. Moreover, the GI50 was 2.43 µM (inactive) in [7]; > 10 µM (inactive) in experiment [8]; > 10 µM (inactive) in [9]; > 10 µM (inactive) in experiment [10]; > 10 µM (inactive) in experiment [11]; > 10 µM (inactive) in [12]. In addition, the GI50 in [13], in experiment [14], in [15], in experiment [16], in experiment [17] and in experiment [18] was > 10 µM (inactive) in each case. The GI50 in experiment [19] is > 10 µM (inactive).

`CCCCc1ccc(Nc2nc3ncnc-3c[nH]2)cc1`: the GI50 in [1] is 21.8 µM (inactive); in [2], 16.7 µM (inactive); in experiment [3] it was 16.8 µM (inactive); in [4] it was 19.4 µM (inactive); in experiment [5] it was 18.2 µM (inactive); in [6], 33.7 µM (inactive). Besides, the GI50 is 14.6 µM (inactive) in [7]; 14.8 µM (inactive) in experiment [8]; 29.6 µM (inactive) in experiment [9]; 20.4 µM (inactive) in [10]; 37.2 µM (inactive) in experiment [11]; 33.3 µM (inactive) in [12]. Further, the GI50 in experiment [13] is > 10 µM (inactive); in experiment [14] it was 17.8 µM (inactive); in experiment [15], 12.5 µM (inactive); in [16], 17 µM (inactive); in experiment [17], 15.9 µM (inactive); in [18], 21.7 µM (inactive). The GI50 in [19] was 18.2 µM (inactive).
